Source: patent US20260206761A1, “HETEROARYL-TRIAZOLE COMPOUNDS AS PESTICIDES” (Bayer Aktiengesellschaft, priority 2019, published 2026)

Experiments:
Type in all cases: in vivo
[1] = system: cattle ticks (Rhipicephalus microplus) strain Parkhurst, SP-resistant; assay: Rhipicephalus (Boophilus) microplus dip test; details: 168 h, application rate 100 ppm, egg deposition after 7 days, read-out: activity (efficacy: infertile eggs)
Protocol: Rhipicephalus (Boophilus) microplus—Din Test
Test animal: cattle ticks (Rhipicephalus microplus) strain Parkhurst, SP-resistant
Solvent: dimethyl sulfoxide
To produce a suitable preparation of active compound, 10 mg of active compound are dissolved in 0.5 mL solvent, and the concentrate is diluted with water to the desired concentration.
This compound solution is pipetted into tubes. 8-10 engorged, adult, female cattle ticks (Rhipicephalus microplus) are placed in perforated tubes. These tubes are immersed in the aqueous compound solution until the ticks are completely moistened. After the liquid has drained off, the ticks are transferred to a filter paper in a plastic tray and stored in a climate chamber.
After 7 days egg deposition of fertile eggs is monitored. Eggs where fertility is not visible are stored in a climate chamber till hatching after about 42 days. An efficacy of 100% means all eggs are infertile; 0% means all eggs are fertile.

[2] = system: adult engorged female ticks (Rhipicephalus microplus); assay: Rhipicephalus (Boophilus) microplus injection test; details: 168 h, egg deposition after 7 days, read-out: activity (efficacy: infertile eggs); for pest or weed control at 4 pg: application rate 4 pg/animal; for pest or weed control at 0.02 mg: application rate 20 μg/animal
In short: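 Abdominal injection, 1 μL compound/DMSO, n=5 engorged adult females; climate-chamber incubation. Readout d7: fertile egg laying; doubtful eggs held to hatch (~42 d). % efficacy = infertile eggs (100% all infertile).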

[3] = system: larvae of the banded cucumber beetle (Diabrotica balteata); assay: Diabrotica balteata spray test; details: 168 h, after 7 days, read-out: activity (efficacy: seedlings grown); for pest or weed control at 100 g/ha: application rate 100 g/ha (=32 pg/well); for pest or weed control at 500 g/ha: application rate 500 g/ha (=160 pg/well)
In short: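 Read-out is % efficacy at day 7, 0% meaning no seedling growth and 100% growth equal to uninfested untreated controls. Test solutions (acetone/DMF concentrate diluted with water carrying 1000 ppm emulsifier) were sprayed onto 1-day-germinated wheat seeds, 5 per well, before infestation with 10-20 larvae.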

[4] = system: Culex quinquefasciatus strain P00; assay: Culex quinquefasciatus test (CULXFA surface treatment & contact assay); details: 24 hours after contact, read-out: efficacy (mortality); for mortality at 4 mg/m2: surface concentration 4 mg/m^2, exposure 30 minutes; for mortality at 20 mg/m2: surface concentration 20 mg/m^2, exposure 30 minutes
In short: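 Compound in acetone (2 mg/ml) with 2000 ppm rapeseed oil methyl ester, dried onto glazed tile. Adult mosquitoes exposed to the treated surface for 30 min. Percent mortality scored 24 h after contact.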

[5] = system: Anopheles funestus strain FUMOZ-R; assay: Anopheles funestus test (ANPHFU surface treatment & contact assay); details: 24 hours after contact, read-out: efficacy (mortality); for mortality at 4 mg/m2: surface concentration 4 mg/m^2, exposure 30 minutes; for mortality at 20 mg/m2: surface concentration 20 mg/m^2, exposure 30 minutes
In short: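 Compound dissolved in acetone at 2 mg/ml with 2000 ppm RME, pipetted onto glazed tile; acetone evaporated. Adult FUMOZ-R mosquitoes exposed to dried surface for 30 min. Percent mortality scored 24 h after contact.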

[6] = system: Musca domestica strain WHO-N; assay: Musca domestica test (MUSCDO surface treatment & contact assay); details: 24 hours after contact, read-out: efficacy (mortality); for mortality at 4 mg/m2: surface concentration 4 mg/m^2, exposure 30 minutes; for mortality at 20 mg/m2: surface concentration 20 mg/m^2, exposure 30 minutes
In short: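 Compound dissolved at 2 mg/ml in acetone with 2000 ppm rapeseed oil methyl ester and pipetted onto a glazed tile. After the acetone evaporated, adult WHO-N flies were exposed to the dried surface for 30 min, with % mortality scored 24 h after contact.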

[7] = system: adult brown dog ticks (Rhipicephalus sanguineus); assay: Rhipicephalus sanguineus in-vitro contact test, adult brown dog ticks; details: after 48 hours, read-out: activity (efficacy: ticks dead or moribund); for pest or weed control at 100 g/ha: application rate 1 pg/cm^2 (=100 g/ha); for pest or weed control at 5 µg/cm2, 500 g/ha: application rate 5 μg/cm^2 (=500 g/ha)
In short: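 Contact exposure: dried compound film inside glass tubes, dose 5 μg/cm^2 at 900 ppm, 5-10 adults per tube at room temperature. Scored at 48 h via a heat-escape test on a 45-50° C plate for up to 5 min.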

Structure (SMILES)	pest or weed control at 100 ppm [1]	pest or weed control at 4 pg [2]	pest or weed control at 0.02 mg [2]	pest or weed control at 100 g/ha [3]	pest or weed control at 500 g/ha [3]	mortality at 4 mg/m2 [4]	mortality at 4 mg/m2 [5]	mortality at 4 mg/m2 [6]	pest or weed control at 100 g/ha [7]	pest or weed control at 5 µg/cm2, 500 g/ha [7]	mortality at 20 mg/m2 [4]	mortality at 20 mg/m2 [5]	mortality at 20 mg/m2 [6]
C[C@H](NC(=O)c1cc(Cl)cc(S(C)(=O)=O)c1)c1nc(C2CC2)nn1-c1ccc(C#N)cn1 [I-4]	100%	100%	100%	100%	100%								
C[C@H](NC(=O)c1cc(C(F)(F)F)cc(S(C)(=O)=O)c1)c1ncnn1-c1ncccn1 [II-13]	100%	100%	100%	100%	100%	80 to 100%	80 to 100%	80 to 100%					
C[C@H](NC(=O)c1cc(OC(F)(F)F)cc(C2CC2)c1)c1ncnn1-c1ccc(Cl)cn1 [II-23]		100%	100%	100%	100%	80 to 100%		80 to 100%	100%	100%	80 to 100%	80 to 100%	80 to 100%
Cc1nc([C@H](C)NC(=O)c2cc(C(F)(F)F)n(C)n2)n(-c2ncccn2)n1 [II-25]		100%	100%		100%	80 to 100%	80 to 100%	80 to 100%	100%	100%	80 to 100%	80 to 100%	80 to 100%
C[C@H](NC(=O)c1cc(C2CC2)cc(C(F)(F)F)c1)c1ncnn1-c1ccc(Cl)cn1 [II-27]		100%	100%	100%	100%	80 to 100%	80 to 100%	80 to 100%	100%	100%	80 to 100%		80 to 100%
C[C@H](NC(=O)c1cc(Cl)cc(S(=O)(=O)C(F)F)c1)c1ncnn1-c1ncccn1 [II-34]		100%	100%	100%	100%	80 to 100%	80 to 100%		100%	100%	80 to 100%	80 to 100%	80 to 100%
Cc1nc([C@H](C)NC(=O)c2cc(OC(F)(F)F)cc(C3CC3)c2)n(-c2ccc(C#N)cn2)n1 [II-39]	100%	100%	100%	100%				80 to 100%	100%	100%	80 to 100%		80 to 100%
C[C@H](NC(=O)c1cc(Cl)cc(S(C)(=O)=O)c1)c1ncnn1-c1ncc(OC(F)F)cn1 [II-42]	100%	100%	100%	80%		80 to 100%	80 to 100%		100%	100%	80 to 100%	80 to 100%	
C[C@H](NC(=O)c1cc(C(F)(F)F)cc(C2(C#N)CC2)c1)c1ncnn1-c1ccc(C#N)cn1 [II-47]	100%	100%	100%	100%			80 to 100%	80 to 100%	100%	100%		80 to 100%	80 to 100%
C[C@H](NC(=O)c1cc(C(F)(F)F)cc(C2(C#N)CC2)c1)c1ncnn1-c1ccc(Cl)cn1 [II-48]	100%	100%	100%	100%			80 to 100%	80 to 100%	100%	100%		80 to 100%	80 to 100%
Cc1nc([C@H](C)NC(=O)c2cc(C(F)(F)F)cc(C3(C#N)CC3)c2)n(-c2ccc(C#N)cn2)n1 [II-49]	100%	100%	100%	100%				80 to 100%	100%	100%		80 to 100%	80 to 100%
